From patent US8859465B2, “Synergistic herbicidal composition containing penoxsulam and glufosinate-ammonium” (Dow AgroSciences LLC, priority 2011, dated 2014)

Key:
Type in all cases: in vivo
[1] = system: smallflower umbrella sedge (Cyperus difformis, CYPDI); test: Postemergence herbicidal activity of mixtures under field conditions in wet-seeded rice, CYPDI; settings: 14 DAA
Experimental: (§1) Evaluation of Postemergence Herbicidal Activity of Mixtures under Field Conditions Methodology
(§2) Field trials were conducted in rice using standard herbicide small plot research methodology. Plot size was 2 square meters (m^2) using 1.6 meter (m) diameter rings placed into the rice paddy soil with capability for flooding to maintain good rice cultural practices and rice growing conditions. There were 3 replicates per treatment. Rice was Japonica type that was sown as wet-seeded rice (pre-germinated) into the saturated soil in the rings as per normal cultural practices. The rice crop was grown using normal cultural practices for fertilization, seeding, watering, flooding and maintenance to ensure good growth of the crop and the weeds under seeded rice conditions in Taiwan. Ring plot water conditions were maintained under saturated soil conditions after planting. Just prior to treatment application, any remaining plot water was drained to maintain saturated soil in ring plot. Treatments were applied by backpack using compressed air at 30 pounds per square inch (psi) using Flat Fan nozzles at a spray volume of 450 Liters/hectare (L/ha). Penoxsulam was applied as the Fencer® 25OD formulation. Glufosinate-ammonium was applied as the Basta® 135 SL formulation.
(§3) All treatments in the field trials were applied by spraying the treatments on the rice and weeds and evaluated at 7, 14, or 28 days after application (DAA). Commercially available products of penoxsulam (FENCER 25OD) and glufosinate-ammonium (BASTA 135 SL) were mixed in water and sprayed onto the rice and weeds with the appropriate formulated product amounts to treat 2 m^2 to achieve the desired application rates based on unit area of application (hectare).
(§4) The treated and control plots were rated blind at various intervals after application, with the last evaluation taken 28 days after application. Ratings were based on percent (%) visual weed control, where 0 corresponds to no control and 100 corresponds to complete control.
(§5) Colby's equation was used to determine the herbicidal effects expected from the mixtures (Colby, S. R. Calculation of the synergistic and antagonistic response of herbicide combinations. Weeds 1967 15, 20-22). Results are shown where P<0.05 according to Colby's method of analysis.
(§6) The following equation was used to calculate the expected activity of mixtures containing two active ingredients, A and B: Expected=A+B−(A×B/100)
(§7) A=observed efficacy of active ingredient A at the same concentration as used in the mixture;
(§8) B=observed efficacy of active ingredient B at the same concentration as used in the mixture.

[2] = system: Japanese bulrush (Schoenoplectus juncoides, SCPJU); test: Postemergence herbicidal activity of mixtures under field conditions in wet-seeded rice, SCPJU
Experimental: as §1, §2, §3, §4, §5, §6, §7, §8

[3] = system: monochoria (Monochoria vaginalis, MOOVA); test: Postemergence herbicidal activity of mixtures under field conditions in wet-seeded rice, MOOVA; settings: 14 DAA
Experimental: as §1, §2, §3
The treated and control plots were rated blind at various intervals after application, with the last evaluation taken 28 days after application. Ratings were based on percent (%) visual weed control, where 0 corresponds to no control and 100 corresponds to complete control. […]

[4] = system: barnyardgrass (Echinochloa crus-galli, ECHCG); test: Postemergence herbicidal activity of mixtures under field conditions in wet-seeded rice, ECHCG
Experimental: as §1, §2, §3, §4, §5, §6, §7, §8

[5] = glufosinate-ammonium 70 grams ai/ha
[6] = 28 DAA, glufosinate-ammonium 35 grams ai/ha
[7] = 28 DAA, glufosinate-ammonium 70 grams ai/ha
[8] = 28 DAA, glufosinate-ammonium 140 grams ai/ha
[9] = 28 DAA, penoxsulam 5 grams ai/ha

2-amino-4-(hydroxymethylphosphinyl)butanoic acid [Glufosinate-ammonium]
CYPDI (% Control) Obs ([1]; glufosinate-ammonium 35 grams ai/ha): 0%
CYPDI (% Control) Obs [1, 5]: 0%
CYPDI (% Control) Obs ([1]; glufosinate-ammonium 140 grams ai/ha): 0%
SCPJU (% Control) Obs ([2]; 7 DAA, glufosinate-ammonium 18 grams ai/ha): 0%
SCPJU (% Control) Obs ([2]; 7 DAA, glufosinate-ammonium 35 grams ai/ha): 0%
SCPJU (% Control) Obs ([2]; 7 DAA, glufosinate-ammonium 70 grams ai/ha): 0%
SCPJU (% Control) Obs ([2]; 7 DAA, glufosinate-ammonium 140 grams ai/ha): 0%
SCPJU (% Control) Obs ([2]; 28 DAA, glufosinate-ammonium 18 grams ai/ha): 0%
SCPJU (% Control) Obs [2, 6]: 0%
SCPJU (% Control) Obs [2, 7]: 0%
SCPJU (% Control) Obs [2, 8]: 0%
MOOVA (% Control) Obs ([3]; glufosinate-ammonium 18 grams ai/ha): 0%
MOOVA (% Control) Obs [3, 5]: 0%
ECHCG (% Control) Obs ([4]; 14 DAA, glufosinate-ammonium 35 grams ai/ha): 0%
ECHCG (% Control) Obs ([4]; 14 DAA, glufosinate-ammonium 70 grams ai/ha): 0%
ECHCG (% Control) Obs ([4]; 14 DAA, glufosinate-ammonium 140 grams ai/ha): 27%
ECHCG (% Control) Obs [4, 6]: 0%
ECHCG (% Control) Obs [4, 7]: 0%
ECHCG (% Control) Obs [4, 8]: 0%
ECHCG (% Control) Obs ([4]; 28 DAA, glufosinate-ammonium 280 grams ai/ha): 13%

COc1cnc(OC)n2nc(NS(=O)(=O)c3c(OCC(F)F)cccc3C(F)(F)F)nc12 [Penoxsulam, 2-(2,2-difluoroethoxy)-N-(5,8-dimethoxy-[1,2,4]triazolo[1,5-c]pyrimidin-2-yl)-6-(trifluoromethyl)benzenesulfonamide]
CYPDI (% Control) Obs ([1]; penoxsulam 5 grams ai/ha): 73%
SCPJU (% Control) Obs ([2]; 7 DAA, penoxsulam 5 grams ai/ha): 40%
SCPJU (% Control) Obs ([2]; 7 DAA, penoxsulam 20 grams ai/ha): 92%
SCPJU (% Control) Obs [2, 9]: 0%
MOOVA (% Control) Obs ([3]; penoxsulam 5 grams ai/ha): 37%
ECHCG (% Control) Obs ([4]; 14 DAA, penoxsulam 5 grams ai/ha): 53%
ECHCG (% Control) Obs ([4]; 14 DAA, penoxsulam 10 grams ai/ha): 62%
ECHCG (% Control) Obs [4, 9]: 30%
ECHCG (% Control) Obs ([4]; 28 DAA, penoxsulam 10 grams ai/ha): 42%
ECHCG (% Control) Obs ([4]; 28 DAA, penoxsulam 20 grams ai/ha): 87%
